Results reported in the NIST ThermoML archive (doi:10.1021/je900212d).
± gives the expanded uncertainty stated by the source.

Assays:
[1] = 101.33 kPa, Liquid
[2] = xn = mol fraction of the nth substance listed; conditions: 101 kPa, Liquid

## ClCCCl [1,2-dichloroethane]
[1]; 288.15 K
  mass density: 1259 ± 8.9 kg/m3
  viscosity: 0.87 ± 0.012 mPa·s
[1]; 293.15 K
  mass density: 1251.9 ± 8.7 kg/m3
  viscosity: 0.8112 ± 0.012 mPa·s
[1]; 298.15 K
  mass density: 1247.4 ± 8.6 kg/m3
  viscosity: 0.7597 ± 0.011 mPa·s
[1]; 303.15 K
  mass density: 1239 ± 8.4 kg/m3
  viscosity: 0.7112 ± 0.011 mPa·s
[1]; 308.15 K
  mass density: 1231.2 ± 8.2 kg/m3
  viscosity: 0.6747 ± 0.011 mPa·s
[1]; 313.15 K
  mass density: 1222 ± 8 kg/m3
  viscosity: 0.6269 ± 0.01 mPa·s

## CCCO [propan-1-ol]
[1]; 288.15 K
  mass density: 810.5 ± 6.9 kg/m3
  viscosity: 2.42 ± 0.03 mPa·s
[1]; 293.15 K
  mass density: 806.5 ± 7 kg/m3
  viscosity: 2.137 ± 0.027 mPa·s
[1]; 298.15 K
  mass density: 803.2 ± 7.1 kg/m3
  viscosity: 1.894 ± 0.024 mPa·s
[1]; 303.15 K
  mass density: 799.3 ± 7.2 kg/m3
  viscosity: 1.684 ± 0.021 mPa·s
[1]; 308.15 K
  mass density: 795.2 ± 7.3 kg/m3
  viscosity: 1.504 ± 0.019 mPa·s
[1]; 313.15 K
  mass density: 790.4 ± 7.5 kg/m3
  viscosity: 1.352 ± 0.017 mPa·s

## O=Cc1ccccc1 [benzaldehyde]
[1]; 288.15 K
  mass density: 1056 ± 7.7 kg/m3
  viscosity: 1.704 ± 0.026 mPa·s
[1]; 293.15 K
  mass density: 1052.8 ± 7.6 kg/m3
  viscosity: 1.558 ± 0.024 mPa·s
[1]; 298.15 K
  mass density: 1047 ± 7.2 kg/m3
  viscosity: 1.427 ± 0.022 mPa·s
[1]; 303.15 K
  mass density: 1043.2 ± 7.1 kg/m3
  viscosity: 1.316 ± 0.021 mPa·s
[1]; 308.15 K
  mass density: 1039 ± 6.8 kg/m3
  viscosity: 1.223 ± 0.019 mPa·s
[1]; 313.15 K
  mass density: 1034.4 ± 6.6 kg/m3
  viscosity: 1.131 ± 0.018 mPa·s

## O=Cc1ccccc1 [benzaldehyde] + ClCCCl
[2]; 288.15 K, x1 = 0.1005
  mass density: 1233 ± 16 kg/m3
  viscosity: 0.9491 ± 0.013 mPa·s
[2]; 288.15 K, x1 = 0.2068
  mass density: 1207.2 ± 15 kg/m3
  viscosity: 1.034 ± 0.015 mPa·s
[2]; 288.15 K, x1 = 0.2964
  mass density: 1186.5 ± 14 kg/m3
  viscosity: 1.097 ± 0.015 mPa·s
[2]; 288.15 K, x1 = 0.3902
  mass density: 1166 ± 13 kg/m3
  viscosity: 1.171 ± 0.016 mPa·s
[2]; 288.15 K, x1 = 0.4888
  mass density: 1146.4 ± 12 kg/m3
  viscosity: 1.27 ± 0.018 mPa·s
[2]; 288.15 K, x1 = 0.5923
  mass density: 1125.5 ± 11 kg/m3
  viscosity: 1.348 ± 0.019 mPa·s
[2]; 288.15 K, x1 = 0.7012
  mass density: 1107.6 ± 10 kg/m3
  viscosity: 1.454 ± 0.021 mPa·s
[2]; 288.15 K, x1 = 0.8159
  mass density: 1086.7 ± 9.1 kg/m3
  viscosity: 1.58 ± 0.023 mPa·s
[2]; 288.15 K, x1 = 0.9061
  mass density: 1070.6 ± 8.3 kg/m3
  viscosity: 1.66 ± 0.025 mPa·s
[2]; 293.15 K, x1 = 0.1007
  mass density: 1227.6 ± 16 kg/m3
  viscosity: 0.8854 ± 0.013 mPa·s
[2]; 293.15 K, x1 = 0.2072
  mass density: 1200 ± 14 kg/m3
  viscosity: 0.9592 ± 0.014 mPa·s
[2]; 293.15 K, x1 = 0.2969
  mass density: 1180.5 ± 14 kg/m3
  viscosity: 1.017 ± 0.015 mPa·s
[2]; 293.15 K, x1 = 0.3909
  mass density: 1161.8 ± 13 kg/m3
  viscosity: 1.085 ± 0.015 mPa·s
[2]; 293.15 K, x1 = 0.4894
  mass density: 1139.5 ± 12 kg/m3
  viscosity: 1.168 ± 0.017 mPa·s
[2]; 293.15 K, x1 = 0.5929
  mass density: 1119.9 ± 11 kg/m3
  viscosity: 1.242 ± 0.018 mPa·s
[2]; 293.15 K, x1 = 0.7017
  mass density: 1102.2 ± 9.8 kg/m3
  viscosity: 1.335 ± 0.02 mPa·s
[2]; 293.15 K, x1 = 0.8163
  mass density: 1082 ± 8.8 kg/m3
  viscosity: 1.445 ± 0.022 mPa·s
[2]; 293.15 K, x1 = 0.9063
  mass density: 1066.4 ± 8.1 kg/m3
  viscosity: 1.517 ± 0.023 mPa·s
[2]; 298.15 K, x1 = 0.1006
  mass density: 1220.5 ± 15 kg/m3
  viscosity: 0.8213 ± 0.012 mPa·s
[2]; 298.15 K, x1 = 0.2069
  mass density: 1196.1 ± 14 kg/m3
  viscosity: 0.8951 ± 0.013 mPa·s
[2]; 298.15 K, x1 = 0.2965
  mass density: 1174.6 ± 13 kg/m3
  viscosity: 0.9471 ± 0.014 mPa·s
[2]; 298.15 K, x1 = 0.3904
  mass density: 1155.5 ± 12 kg/m3
  viscosity: 1.008 ± 0.015 mPa·s
[2]; 298.15 K, x1 = 0.4889
  mass density: 1133.4 ± 11 kg/m3
  viscosity: 1.08 ± 0.016 mPa·s
[2]; 298.15 K, x1 = 0.5924
  mass density: 1117.3 ± 10 kg/m3
  viscosity: 1.151 ± 0.017 mPa·s
[2]; 298.15 K, x1 = 0.7013
  mass density: 1098.6 ± 9.6 kg/m3
  viscosity: 1.233 ± 0.018 mPa·s
[2]; 298.15 K, x1 = 0.816
  mass density: 1077.9 ± 8.6 kg/m3
  viscosity: 1.328 ± 0.02 mPa·s
[2]; 298.15 K, x1 = 0.9061
  mass density: 1063.1 ± 8 kg/m3
  viscosity: 1.394 ± 0.021 mPa·s
[2]; 303.15 K, x1 = 0.1009
  mass density: 1214.3 ± 15 kg/m3
  viscosity: 0.7706 ± 0.012 mPa·s
[2]; 303.15 K, x1 = 0.2074
  mass density: 1190 ± 14 kg/m3
  viscosity: 0.8362 ± 0.012 mPa·s
[2]; 303.15 K, x1 = 0.2972
  mass density: 1169.8 ± 13 kg/m3
  viscosity: 0.8848 ± 0.013 mPa·s
[2]; 303.15 K, x1 = 0.3911
  mass density: 1150.1 ± 12 kg/m3
  viscosity: 0.9515 ± 0.014 mPa·s
[2]; 303.15 K, x1 = 0.4897
  mass density: 1126.5 ± 11 kg/m3
  viscosity: 1.003 ± 0.015 mPa·s
[2]; 303.15 K, x1 = 0.5932
  mass density: 1112.7 ± 10 kg/m3
  viscosity: 1.07 ± 0.016 mPa·s
[2]; 303.15 K, x1 = 0.702
  mass density: 1094.4 ± 9.4 kg/m3
  viscosity: 1.143 ± 0.017 mPa·s
[2]; 303.15 K, x1 = 0.8165
  mass density: 1073.2 ± 8.4 kg/m3
  viscosity: 1.225 ± 0.018 mPa·s
[2]; 303.15 K, x1 = 0.9064
  mass density: 1058.5 ± 7.7 kg/m3
  viscosity: 1.285 ± 0.02 mPa·s
[2]; 308.15 K, x1 = 0.1011
  mass density: 1206.5 ± 15 kg/m3
  viscosity: 0.726 ± 0.011 mPa·s
[2]; 308.15 K, x1 = 0.2078
  mass density: 1182.6 ± 14 kg/m3
  viscosity: 0.7824 ± 0.012 mPa·s
[2]; 308.15 K, x1 = 0.2976
  mass density: 1162.9 ± 13 kg/m3
  viscosity: 0.828 ± 0.013 mPa·s
[2]; 308.15 K, x1 = 0.3917
  mass density: 1144.1 ± 12 kg/m3
  viscosity: 0.8897 ± 0.013 mPa·s
[2]; 308.15 K, x1 = 0.4903
  mass density: 1121 ± 11 kg/m3
  viscosity: 0.9346 ± 0.014 mPa·s
[2]; 308.15 K, x1 = 0.5937
  mass density: 1107.8 ± 10 kg/m3
  viscosity: 0.998 ± 0.015 mPa·s
[2]; 308.15 K, x1 = 0.7025
  mass density: 1091 ± 9.2 kg/m3
  viscosity: 1.067 ± 0.016 mPa·s
[2]; 308.15 K, x1 = 0.8168
  mass density: 1068.5 ± 8.2 kg/m3
  viscosity: 1.135 ± 0.017 mPa·s
[2]; 308.15 K, x1 = 0.9066
  mass density: 1053 ± 7.4 kg/m3
  viscosity: 1.189 ± 0.018 mPa·s
[2]; 313.15 K, x1 = 0.1013
  mass density: 1198 ± 14 kg/m3
  viscosity: 0.6795 ± 0.011 mPa·s
[2]; 313.15 K, x1 = 0.2083
  mass density: 1173.6 ± 13 kg/m3
  viscosity: 0.7327 ± 0.011 mPa·s
[2]; 313.15 K, x1 = 0.2983
  mass density: 1153.9 ± 12 kg/m3
  viscosity: 0.777 ± 0.012 mPa·s
[2]; 313.15 K, x1 = 0.3924
  mass density: 1136.7 ± 11 kg/m3
  viscosity: 0.8272 ± 0.013 mPa·s
[2]; 313.15 K, x1 = 0.491
  mass density: 1115.5 ± 10 kg/m3
  viscosity: 0.8725 ± 0.013 mPa·s
[2]; 313.15 K, x1 = 0.5945
  mass density: 1102.2 ± 9.7 kg/m3
  viscosity: 0.9318 ± 0.014 mPa·s
[2]; 313.15 K, x1 = 0.7031
  mass density: 1085.5 ± 8.9 kg/m3
  viscosity: 0.9944 ± 0.015 mPa·s
[2]; 313.15 K, x1 = 0.8173
  mass density: 1063.1 ± 7.9 kg/m3
  viscosity: 1.054 ± 0.016 mPa·s
[2]; 313.15 K, x1 = 0.9069
  mass density: 1049.7 ± 7.3 kg/m3
  viscosity: 1.107 ± 0.017 mPa·s
